This note sets out measurements from PMC9360614, “Discovery of TIGIT inhibitors based on DEL and machine learning” (Frontiers in Chemistry, 2022).

The test deals with T1, TIGIT/CD155 complex (Homo sapiens, UniProt Q495A1).
T1 construct: purchased 63ADK000CB07PEG
T1 sequence (Q495A1 22-141 limits assumed): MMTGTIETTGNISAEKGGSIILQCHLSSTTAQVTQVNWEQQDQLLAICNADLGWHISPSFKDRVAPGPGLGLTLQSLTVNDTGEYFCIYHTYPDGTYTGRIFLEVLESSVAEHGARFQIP
Put plainly: HTRF TIGIT/CD155 binding assay (blocking of TIGIT/CD155 complex). Conditions: for TIGIT binding effects compared with compound 1: derivatives with side chains R1, R2, R3 modified; for IC50: read-out: IC50, protein-protein blocking activity for TIGIT/CD155 complex. As to the method:
Thus, the most enriched library molecule was found in the TIGIT screening and marked as potential ligand 1 (highlighted red in Figure 2A), whereas it was not observed in the bead-only control (Supplementary Figure S1B). The hit compound 1 was re-synthesized by “off-DNA” (the structure is shown in Figure 2B), and corresponding binding affinity was tested utilizing homogeneous time-resolved fluorescence (HTRF) technology.
For all compounds, the binding affinities were measured with TIGIT/CD155 Binding Assay (Immuno-Oncology, Part # 63ADK000CB07PEG) following the standard kit protocol.
(Time-resolved FRET reads energy transfer from a long-lived donor to a nearby acceptor.)

Consider `COc1ccc(C(NC(=O)[C@H](Cc2ccsc2)NC(=O)c2ccc3cc(OC)ccc3c2)c2ccc(OCC(=O)O)cc2)c(OC)c1` (stereo partly shown) [Compound a6], for which the “TIGIT binding effects compared with compound 1” value is recorded as “improved”.
Same read-out and setting: in the case of `COc1ccc(C(NC(=O)[C@H](Cc2csc3ccccc23)NC(=O)[C@@H](C)c2ccc3cc(OC)ccc3c2)c2ccc(OCC(=O)O)cc2)c(OC)c1` (stereo partly shown) [Compound a16] it was “improved”; in that of `COc1ccc(C(NC(=O)[C@H](Cc2ccc(F)cc2)NC(=O)[C@@H](C)c2ccc3cc(OC)ccc3c2)c2ccc(OCC(=O)O)cc2)c(OC)c1` (stereo partly shown) [Compound a18], “improved”.
For the compound `COc1ccc(C(NC(=O)[C@H](Cc2ccsc2)NC(=O)/C=C/c2ccc3cc(OC)ccc3c2)c2ccc(OCC(=O)O)cc2)c(OC)c1` (stereo partly shown) [Compound a7], the “binding affinity rank among derivatives” value is given as “highest binding affinity”, the “TIGIT binding effects compared with compound 1” value was “improved” and the IC50 stood at 3.9 µM.
On to `COc1ccc2cc([C@H](C)C(=O)N[C@@H](Cc3csc4ccccc34)C(=O)NCc3ccc(OCC(=O)O)cc3)ccc2c1` [Compound a27], for which the “TIGIT binding effects compared with compound 1” value is on record as “improved”.
In the case of `COc1ccc(C(NC(=O)C(Cc2ccsc2)NC(=O)C(C)c2ccc3cc(OC)ccc3c2)c2ccc(OCC(=O)O)cc2)c(OC)c1` (stereo not shown) [Compound 1], the IC50 stood at 20.7 µM.
With `COc1ccc(C(NC(=O)[C@H](Cc2ccccc2)NC(=O)[C@@H](C)c2ccc3cc(OC)ccc3c2)c2ccc(OCC(=O)O)cc2)c(OC)c1` (stereo partly shown) [Compound a17], the “TIGIT binding effects compared with compound 1” value was “improved”.
Same read-out and setting: as for `COc1ccc(C(NC(=O)[C@H](Cc2cccc(C#N)c2)NC(=O)[C@@H](C)c2ccc3cc(OC)ccc3c2)c2ccc(OCC(=O)O)cc2)c(OC)c1` (stereo partly shown) [Compound a19], the entry is “improved”.
